Where two headings read alike, the source gives them in different places.
Tests used:
[1] = Pharmacokinetic study in rat plasma after oral administration of QJYQ (UHPLC-sMRM); assay type: in vivo, Sprague-Dawley rats; conditions: rat plasma, oral QJYQ 3.15 g/kg; for MRT: MRT type not specified; for AUC(0-inf): read-out: AUC(0-∞); for MRT inf: read-out: MRT (0-∞); for MRT last: read-out: MRT(0-t)
Description: Exion LC AD tandem Blueline 3500 triple quadrupole mass spectrometer (AB SCIEX, Framingham, MA, United States) was used to thirty-three compounds in rat plasma. […] The whole detailed parameters of sMRM were obtained in Supplementary Table S1.
Rat plasma (100 μL) was mixed with 10% formic acid (10 μL) and vortexed for 1 min at room temperature. ISs (10 μL) and methanol/acetonitrile (1/1, v/v) (400 μL) were added and vortexed for 5 min, then centrifuged for 10 min at 14,000 rpm and 4°C. The transported supernatant was condensed to dryness under the flow of nitrogen gas. The dried residue was reconstituted with 70% methanol (100 μL) by vortex-mixing for 5 min and centrifuging at 14,000 rpm for 10 min. Last, 2 μL of the solution were injected into the UHPLC-sMRM system.
The pharmacokinetic study was approved by the Animal Ethics Committee of Tianjin University of Traditional Chinese Medicine (TCM-LAEC2021228). Ten male Sprague-Dawley rats (weight 220–240 g) was kept at the animal center of Tianjin University of Traditional Chinese Medicine (Tianjin, China). […] The sample was transferred right away following a 10 min period of centrifugation at 7000 rpm and 4°C. All plasma samples were frozen and stored at −80°C.
All the pharmacokinetic parameters were calculated using the DAS 1.0 software (Drug and Statistics 1.0, Medical College of Wannan, China). Pharmacokinetic parameters include the maximum drug concentration in plasma (Cmax), the time to achieve maximum drug concentration (Tmax), the area under the plasma concentration-time curve (AUC), elimination half-life (T1/2), and mean residence time (MRT). The pharmacokinetic parameters were computed using the non-compartmental model. All data are expressed as mean ± standard deviation (SD). GraphPad Prism 8.0 (GraphPad Software Inc., La Jolla, CA, United States) software was used to draw the drug-time curve.

[2] = Stability of the working solution (4°C for 1 month); assay type: physicochemical
Description: (§1) The stability of analytes in plasma was evaluated by analyzing 4 QC samples (n = 6). The stability was included auto-sampler stability (keeping the sample in auto-sampler for 24 h), three times of freeze-thaw cycles stability (freezing cycle at −80°C, thawing cycle at room temperature), room temperature stability (storing samples at room temperature for 24 h), long-term stability (storing samples at −80°C for 1 month). […] Accompanying curve was established when testing the sample, calculate and compare the ratio of the actual measured concentration to the theoretical concentration, expressed in accuracy and RSD.

[3] = Stability of analytes in rat plasma (auto-sampler, freeze-thaw, room temperature, long-term); conditions: for Autosampler for 24 h Accuracy (%): autosampler 24 h; for Room temperature for 24 h Accuracy (%): room temperature 24 h; for Freeze thaw cycles Accuracy (%): three freeze-thaw cycles
Description: as §1

[4] = male, Sprague-Dawley, n = 8, mean ± SD
[5] = male, Sprague-Dawley, n = 8, mean ± SD, read-out: AUC(0-t)

COc1c(O)cc(O)c2c(=O)cc(-c3ccccc3)oc12 [wogonin]
Tmax ([1]; male, Sprague-Dawley, rat, plasma, po, 3.15 g/kg, n = 8, mean ± SD, read-out: Tmax): 6.29 ± 0.76 h | MRT ([1]; male, Sprague-Dawley, read-out: MRT): > 8 h | half-life [1, 4]: 1.91 ± 0.09 h | AUC(0-t) [1, 5]: 288 ± 66.1 ng·h/mL | AUC(0-inf) [1, 4]: 288 ± 66.1 ng·h/mL | MRT inf [1, 4]: 8.27 ± 1.09 h | MRT last [1, 4]: 8.27 ± 1.09 h | Cmax ([1]; n = 8, mean ± SD): 38.13 ± 10.55 ng/mL | Working solution Accuracy (%) ([2]; concentration 1.56 ng/mL): 98.0% | Working solution Accuracy (%) ([2]; concentration 12.5 ng/mL): 98.9% | Working solution Accuracy (%) ([2]; concentration 100 ng/mL): 85.8% | Working solution Accuracy (%) ([2]; concentration 500 ng/mL): 100.0% | Autosampler for 24 h Accuracy (%) ([3]; concentration 1.56 ng/mL): 82.8% | Autosampler for 24 h Accuracy (%) ([3]; concentration 12.5 ng/mL): 111.0% | Autosampler for 24 h Accuracy (%) ([3]; concentration 100 ng/mL): 102.0% | Autosampler for 24 h Accuracy (%) ([3]; concentration 500 ng/mL): 90.5% | Room temperature for 24 h Accuracy (%) ([3]; concentration 1.56 ng/mL): 98.0% | Room temperature for 24 h Accuracy (%) ([3]; concentration 12.5 ng/mL): 94.1% | Room temperature for 24 h Accuracy (%) ([3]; concentration 100 ng/mL): 89.8% | Room temperature for 24 h Accuracy (%) ([3]; concentration 500 ng/mL): 106.0% | Freeze thaw cycles Accuracy (%) ([3]; concentration 1.56 ng/mL): 86.4% | Freeze thaw cycles Accuracy (%) ([3]; concentration 12.5 ng/mL): 89.6% | Freeze thaw cycles Accuracy (%) ([3]; concentration 500 ng/mL): 91.8% | −80°C for 1month Accuracy (%) ([3]; −80°C for 1 month, concentration 1.56 ng/mL): 111.0% | −80°C for 1month Accuracy (%) ([3]; −80°C for 1 month, concentration 12.5 ng/mL): 85.1% | −80°C for 1month Accuracy (%) ([3]; −80°C for 1 month, concentration 100 ng/mL): 96.0% | −80°C for 1month Accuracy (%) ([3]; −80°C for 1 month, concentration 500 ng/mL): 87.4%

COc1cc(/C=C/C(=O)O)ccc1O [ferulic acid]
MRT [1]: greater than 8 h | AUC(0-t) ([1]; n = 8, mean ± SD): 173.23 ± 5.66 ng·h/mL | AUC(0-∞) ([1]; n = 8, mean ± SD): 176.72 ± 28.57 ng·h/mL | Cmax ([1]; n = 8, mean ± SD): 51.71 ± 10.68 ng/mL | MRT (0-∞) ([1]; n = 8, mean ± SD): 8.43 ± 0.53 h | MRT(0-t) ([1]; n = 8, mean ± SD): 8.40 ± 0.20 h | T1/2 ([1]; n = 8, mean ± SD): 2.12 ± 0.07 h | Working solution Accuracy (%) ([2]; 12.5 ng/mL): 87.7% | Working solution Accuracy (%) ([2]; 50 ng/mL): 96.8% | Working solution Accuracy (%) ([2]; 100 ng/mL): 88.3% | Working solution Accuracy (%) ([2]; 500 ng/mL): 96.7% | Autosampler for 24 h Accuracy (%) ([3]; 12.5 ng/mL): 84.5% | Room temperature for 24 h Accuracy (%) ([3]; 12.5 ng/mL): 104.0% | Freeze thaw cycles Accuracy (%) ([3]; 12.5 ng/mL): 96.0% | −80°C for 1month Accuracy (%) ([3]; 12.5 ng/mL, −80°C 1 month): 115.0% | Autosampler for 24 h Accuracy (%) ([3]; 50 ng/mL): 86.9% | Room temperature for 24 h Accuracy (%) ([3]; 50 ng/mL): 96.8% | Freeze thaw cycles Accuracy (%) ([3]; 50 ng/mL): 98.3% | −80°C for 1month Accuracy (%) ([3]; 50 ng/mL, −80°C 1 month): 90.9% | Autosampler for 24 h Accuracy (%) ([3]; 100 ng/mL): 91.5% | Room temperature for 24 h Accuracy (%) ([3]; 100 ng/mL): 86.7% | Freeze thaw cycles Accuracy (%) ([3]; 100 ng/mL): 115.0% | −80°C for 1month Accuracy (%) ([3]; 100 ng/mL, −80°C 1 month): 95.9% | Autosampler for 24 h Accuracy (%) ([3]; 500 ng/mL): 93.6% | −80°C for 1month Accuracy (%) ([3]; 500 ng/mL, −80°C 1 month): 107.0%

COc1ccc(/C=C/C(=O)O)cc1O [isoferulic acid]
half-life [1, 4]: 4.68 ± 0.41 h | AUC(0-t) [1, 5]: 347 ± 120 ng·h/mL | AUC(0-inf) [1, 4]: 354 ± 132 ng·h/mL | Cmax ([1]; male, Sprague-Dawley, n = 8, mean ± SD, read-out: Cmax): 235 ± 81.1 ng/mL | MRT inf [1, 4]: 5.85 ± 3.26 h | MRT last [1, 4]: 5.25 ± 2.87 h | Working solution Accuracy (%) ([2]; 50 ng/mL): 100.0% | Working solution Accuracy (%) ([2]; 100 ng/mL): 95.7% | Working solution Accuracy (%) ([2]; 200 ng/mL): 104.0% | Room temperature for 24 h Accuracy (%) ([3]; 50 ng/mL): 108.0% | Freeze thaw cycles Accuracy (%) ([3]; 50 ng/mL): 95.7% | −80°C for 1month Accuracy (%) ([3]; 50 ng/mL, −80°C 1 month): 90.8% | Autosampler for 24 h Accuracy (%) ([3]; 100 ng/mL): 88.3% | Room temperature for 24 h Accuracy (%) ([3]; 100 ng/mL): 87.5% | Freeze thaw cycles Accuracy (%) ([3]; 100 ng/mL): 86.2% | −80°C for 1month Accuracy (%) ([3]; 100 ng/mL, −80°C 1 month): 85.5% | Autosampler for 24 h Accuracy (%) ([3]; 200 ng/mL): 102.0% | Room temperature for 24 h Accuracy (%) ([3]; 200 ng/mL): 87.2% | Autosampler for 24 h Accuracy (%) ([3]; 500 ng/mL): 104.0% | Freeze thaw cycles Accuracy (%) ([3]; 500 ng/mL): 95.6% | −80°C for 1month Accuracy (%) ([3]; 500 ng/mL, −80°C 1 month): 106.0%
